Experimental data taken from patent US20220160815A1, “PEPTIDES AND USES THEREOF” (LATERAL IP PTY LTD, priority 2019, published 2022).
Several values for one entry are separate records, joined by “and”; a condition that tells them apart may be missing. Equal values may be shown once.

What was measured:
Type in all cases: in vivo, human
migraine headache = test: Randomised, placebo-controlled, double-blind, crossover proof of concept study of oral LAT8881 in acute migraine headache; settings: 60 mg oral
From the text: The primary objective of this study was to evaluate the effect of oral LAT8881 on migraine headache compared with placebo, when assessed by the headache severity on an 11-point Numeric Rating Scale (NRS).
The secondary objectives of this study included: • a) to evaluate the effect of oral LAT8881 on migraine-associated symptoms compared with placebo, when assessed by the change in symptoms based on a 11-point Likert scale; • b) to investigate the percentage of subjects achieving “no headache pain” following treatment with oral LAT8881 compared with placebo at any time-point to 8 hours post dose, with no use of rescue medication; and • c) to evaluate the safety and tolerability of single doses of oral LAT8881 in subjects with migraine headache.
This was a randomised, placebo-controlled, double-blind, crossover, Phase Ha proof of concept study to investigate the efficacy and safety of oral LAT8881 (SEQ ID NO:2) in acute migraine headache with or without aura.
Subjects entered into the study were randomised to receive IMP (LAT8881; 60 mg or placebo), taken at the onset (within one hour from the onset of pain) of a migraine headache of moderate to severe intensity [Numeric rating scale (NRS)≥4]. Subjects were advised not to take rescue medication until at least 2 hours post dose with LAT8881. Subjects were given one dose of IMP (2 capsules), to treat one migraine headache.
After treatment of one migraine headache (or a maximum 28 days), the subject was asked to return to the clinic for re-evaluation and crossover to the second treatment. In the second treatment period, subjects were asked to take IMP in the same manner as in treatment period 1.
Subjects entered into the study were randomised to receive IMP (LAT8881; 60 mg or placebo; orally), to be taken at the onset (within one hour from the onset of pain) of a migraine headache of moderate to severe intensity.
Primary efficacy endpoints included a change in migraine headache pain score, using an 11-point NRS, (0=none, 10=worst imaginable), from the time of dosing to 0.5, 1.0, 1.5, 2, 4, 8 and 24 hours post dose. Pain was recorded in the subject' diary and was expected to reflect the subject's pain at the time of recording.
Secondary efficacy endpoints included: • a) Change in migraine-associated symptoms of nausea, photophobia and phonophobia. Symptoms were assessed on an 11-point Likert scale with 0=no symptoms and 10 being severe symptoms at time of dosing and at 0.5, 1.0, 1.5, 2, 4, 8 and 24 hours post dose; • b) Change in each subject's most troublesome symptom that may include nausea, photophobia and phonophobia cognitive impairment, dizziness and functional disability. Symptoms were assessed on an 11-point Likert scale with 0=no symptoms and 10 being severe symptoms at time of dosing and at 0.5, 1.0, 1.5, 2, 4, 8 and 24 hours post dose; and • c) The percentage of subjects achieving “no headache pain” at 0.5, 1.0, 1.5, 2, 4 and 8 hours post dose.
Post-hoc analyses were undertaken to assess the responder rate at each time point after dose of IMP. Two classifications of responder were defined: at least 30% change from baseline in NRS score and an NRS score of less than or equal to 3 at the post dose time points. After unblinding, it was discovered that one subject had recorded a pre-dose NRS score of 2 in period 1, a major protocol deviation as the instructions were to take IMP within one hour of the onset of a migraine headache of moderate to severe intensity (NRS>=4). This subject's data for this period was excluded. The responder rate for each treatment and difference between LAT8881 and placebo (95% confidence interval) at each time point are provided in Table 2, below (P1=Period 1; P2=Period 2; Photo=Photophobia; Phono=Phonophobia). FIGS. 1-4 show selected examples of NSR Pain Scores of subjects that completed the study and who received treatment with either placebo or with LAT8881 (SEQ ID NO:2; 60 mg per dose, orally).

migraine [1] = test: Case study 4: LAT8881 injected into the right greater occipital nerve during a migraine attack; settings: 0.4 mg injected into right greater occipital nerve
Description: The subject was a person that suffers from migraines and occipital neuralgia. The subject presented with bilateral tenderness of both occipital nerve sites and bilateral headaches, bitemporally and behind the eyes, all indicative of a migraine attack.
Dosage: 0.4 mg of LAT8881 (SEQ ID NO:2) injected into the right greater occipital nerve.

migraine [2] = test: Case studies 1-3: oral LAT8881 capsules taken during a migraine attack, self-rated pain and nausea
[3] = 2 subjects menstruating at the time of the migraine, NRS pain score
[4] = of the 15 subjects who completed the study
[5] = subjects who showed a benefit, NRS pain score
[6] = subjects who were slightly worse, NRS pain score
[7] = Case Study 2, 1 mg, 4 hours after dosing, 8 out of 10 at time of dosing

## YLRIVQCRSVEGSCGF (listed as Homo sapiens) [LAT8881, C-terminal fragment of human growth hormone (hGH) spanning amino acid residues 178-192, with an additional tyrosine residue at the N-terminus]
Migraine headache; [3]
  average score reduction in menstruating subjects: 6
  range of score reduction in menstruating subjects: 10 to 2
Migraine headache; 11-point Likert scale, individual subjects
  Nausea change 2 hrs LAT8881: 0 (2×) and −5 (2×) and −10 and 1 and −1 (4×) and −2 (2×) and 2 and −8 and 3 and −3 and 6
Migraine headache; 11-point NRS (0=none, 10=worst imaginable), individual subjects
  LAT8881 pain score at 2 hours: 2 and 1 and 0 and 5 (2×) and 8 (3×) and 6 (4×) and 3 (2×) and 4 and 7 and 9
Migraine headache; 30 minutes post dose
  Responder rate (95% CI), 30% change from baseline: 0
  Responder rate (95% CI), NRS Score <= 3: 0
Migraine headache; 30 minutes post dose, responder = NRS score of less than or equal to 3
  Count/Total, NRS Score <= 3: 0/16
Migraine headache; 30 minutes post dose, responder = at least 30% change from baseline in NRS score
  Count/Total, 30% change from baseline: 0/16
Migraine headache; 1 hour post dose
  Count/Total, 30% change from baseline: 2/16
  Count/Total, NRS Score <= 3: 1/16
  Responder rate (95% CI), 30% change from baseline: 12.50
  Responder rate (95% CI), 30% change from baseline, difference LAT8881 60 mg-Placebo: 12.5 (−3.7, 28.7)
  Responder rate (95% CI), NRS Score <= 3: 6.25
  Responder rate (95% CI), NRS Score <= 3, difference LAT8881 60 mg-Placebo: 0 (−16.77, 16.77)
Migraine headache; 1.5 hours post dose
  Count/Total, 30% change from baseline: 3/16
  Count/Total, NRS Score <= 3: 3/16
  Responder rate (95% CI), 30% change from baseline: 18.75
  Responder rate (95% CI), 30% change from baseline, difference LAT8881 60 mg-Placebo: 12.5 (−10, 35)
  Responder rate (95% CI), NRS Score <= 3: 18.75
  Responder rate (95% CI), NRS Score <= 3, difference LAT8881 60 mg-Placebo: 12.5 (−10, 35)
Migraine headache; 2 hours
  subjects menstruating at the time of the migraine who benefited: 2 out of 2
Migraine headache; 2 hours post dose
  Count/Total, 30% change from baseline: 8/16
  Count/Total, NRS Score <= 3: 5/16
  Responder rate (95% CI), 30% change from baseline: 50.00
  Responder rate (95% CI), 30% change from baseline, difference LAT8881 60 mg-Placebo: 18.75 (−14.66, 52.16)
  Responder rate (95% CI), NRS Score <= 3: 31.25
  Responder rate (95% CI), NRS Score <= 3, difference LAT8881 60 mg-Placebo: 25 (-0.62, 50.62)
Migraine headache; 4 hours post dose
  Count/Total, 30% change from baseline: 8/16
  Count/Total, NRS Score <= 3: 5/16
  Responder rate (95% CI), 30% change from baseline: 50.00
  Responder rate (95% CI), 30% change from baseline, difference LAT8881 60 mg-Placebo: 0 (−34.65, 34.65)
  Responder rate (95% CI), NRS Score <= 3: 31.25
  Responder rate (95% CI), NRS Score <= 3, difference LAT8881 60 mg-Placebo: −6.25 (-39.09, 26.59)
Migraine headache; 8 hours post dose
  Count/Total, 30% change from baseline: 14/16
  Count/Total, NRS Score <= 3: 13/16
  Responder rate (95% CI), 30% change from baseline: 87.50
  Responder rate (95% CI), 30% change from baseline, difference LAT8881 60 mg-Placebo: 25 (−3.73, 53.73)
  Responder rate (95% CI), NRS Score <= 3: 81.25
  Responder rate (95% CI), NRS Score <= 3, difference LAT8881 60 mg-Placebo: 25 (−5.93, 55.93)
Migraine headache; 24 hours post dose
  Count/Total, 30% change from baseline: 16/16
  Count/Total, NRS Score <= 3: 15/16
  Responder rate (95% CI), 30% change from baseline: 100.00
  Responder rate (95% CI), 30% change from baseline, difference LAT8881 60 mg-Placebo: 12.5 (−3.7, 28.7)
  Responder rate (95% CI), NRS Score <= 3: 93.75
  Responder rate (95% CI), NRS Score <= 3, difference LAT8881 60 mg-Placebo: 6.25 (−13.83, 26.33)
Migraine headache; NRS pain score, predose to 2 hours, individual subjects
  LAT8881 change from baseline: −3 (3×) and −5 and −10 and 1 (3×) and 2 (2×) and −4 (2×) and −2 (3×) and −1 and 0
Migraine headache; most troublesome symptom, 11-point Likert scale, individual subjects
  Most Troublesome, change 2 hrs LAT8881: −5 (3×) and −10 and 3 (3×) and 0 (4×) and −4 and 1 and −2 (3×) and −1
Migraine headache; [4]
  number of subjects slightly worse at 2 hours: 5
  number of subjects unchanged at 2 hours: 1
  number of subjects whose pain had reduced to 3 or less after 2 hours: 4
Migraine headache; of the 15 subjects who completed the study, NRS pain score
  number of subjects who showed a benefit at 2 hours: 9
Migraine headache; phonophobia, 11-point Likert scale, individual subjects
  Phono change at 2 hrs LAT8881: 0 (9×) and −7 and 4 and 2 (2×) and −4 and −1 and −2 and 3
Migraine headache; photophobia, 11-point Likert scale, individual subjects
  Photo change at 2 hrs LAT8881: 0 (3×) and −2 (5×) and −7 and 1 (4×) and −6 (2×) and −4
Migraine headache; placebo led to an increase of 3 in the same subject
  pain score reduction in the subject menstruating at the time of each treatment: 2
Migraine headache; [5]
  median benefit at 2 hours: 3
  range of benefit at 2 hours: 1-10
Migraine headache; [6]
  median increase at 2 hours: 2
  range of increase at 2 hours: 1-2
Migraine [1]; Case Study 4, migraines and occipital neuralgia, within ten minutes
  migraine pain reported by subject: pain-free
Migraine [1]; Case Study 4
  other effects reported by subject: mental clarity and loss of brain fog
Migraine [1]; Case Study 4, within ten minutes, bilateral tenderness at presentation
  tenderness over the occipital nerve: no tenderness on either side over the occipital nerve
Migraine [2]; Case Study 1, 1 mg (four 0.25 mg capsules), an hour after dosing, 8 out of 10 at time of dosing
  migraine pain rating: 7 out of 10
Migraine [2]; Case Study 1, 1 mg, 4 hours after dosing, 7 out of 10 at time of dosing
  nausea rating: 3 out of 10
Migraine [2]; Case Study 1, 1 mg, 4 hours after dosing, 8 out of 10 at time of dosing
  migraine pain rating: 6 out of 10
Migraine [2]; Case Study 1, 1 mg, an hour after dosing, 7 out of 10 at time of dosing
  nausea rating: 5 out of 10
Migraine [2]; Case Study 1, 1 mg, subject averages about one migraine per month
  migraine recurrence after dosing: No migraine was reported in the following month
Migraine [2]; Case Study 2, 1 mg (two 0.5 mg capsules), an hour after dosing, 8 out of 10 at time of dosing
  migraine pain rating: 2 out of 10
Migraine [2]; [7]
  migraine pain rating: 1 out of 10
  nausea rating: 1 out of 10
Migraine [2]; Case Study 2, 1 mg, an hour after dosing, 8 out of 10 at time of dosing
  nausea rating: 2 out of 10
Migraine [2]; Case Study 2, 1 mg, subject averages about two migraines per month
  migraine recurrence after dosing: No migraines reported in the following two months
Migraine [2]; Case Study 3, 0.5 mg, overnight, 0 out of 10 at time of dosing
  nausea rating: 0 out of 10
Migraine [2]; Case Study 3, 0.5 mg, subject has migraines once every 3-6 months
  migraine recurrence after dosing: No migraines reported in the following three months
